In the Kinase Knowledgebase extract (Sharma et al. 2016):
pIC50: −log10 of the molar value.

Each compound was assayed against CDK2 (human) (UniProt P24941) (assay: Enzyme Assay).

pIC50, ≥ 6.00:
O=C(CCN1CCCCC1)Nc1ccc2cc1OCCC=CCn1ccc3ccc(cc31)-c1ccnc(n1)N2
CCN(CC)CCNCCOc1ccc2cc1COCC=CCn1ccc3ccc(cc31)-c1ccnc(n1)N2
O=C(CCN1CCCCC1)Nc1ccc2cc1OCC=CCn1ccc3ccc(cc31)-c1ccnc(n1)N2
C1=CCn2ccc3ccc(cc32)-c2ccnc(n2)Nc2cccc(c2)COC1
CN1CCN(c2ccc3cc2COCC=CCn2ccc4ccc(cc42)-c2ccnc(n2)N3)CC1
C1=CCn2ccc3ccc(cc32)-c2ccnc(n2)Nc2cccc(c2)OCC1
C1=CCn2ccc3ccc(cc32)-c2ccnc(n2)Nc2ccc(OCCN3CCCC3)c(c2)COC1
Cc1cnc2nc1-c1ccc3ccn(c3c1)CC=CCOCc1cc(ccc1OCCN1CCCC1)N2
C1=CCOCc2cc(ccc2OCCN2CCCC2)Nc2nccc(n2)-c2ccc3c(ccn3CC1)c2
C1=CCOCc2cc(ccc2OCCN2CCCC2)Nc2nccc(n2)-c2ccc3ccn(c3c2)CC1
ClCCOc1ccc2cc1COCC=CCn1ccc3ccc(cc31)-c1ccnc(n1)N2
CN1CC=CCCn2ccc3ccc(cc32)-c2ccnc(n2)Nc2cccc(c2)C1
CC(=O)NCCNCCOc1ccc2cc1COCC=CCn1ccc3ccc(cc31)-c1ccnc(n1)N2
